Laboratory results as given in patent publication US20240174643A1, “SOS1 PROTEIN DEGRADERS, PHARMACEUTICAL COMPOSITIONS THEREOF, AND THEIR THERAPEUTIC APPLICATIONS” (Bio TheryX, Inc., priority 2021, published 2024).

Assays:
Type in all cases: cell-based
SW480 (G12V) cells = experiment: Cell viability assay (CELLTITER-GLO), SW480 cells; conditions: Homo sapiens, 72 h, 3 days at 37° C., CELLTITER-GLO luminescence, read-out: Inhibition of Cancerous Cells IC50 (μM) SW480 (G12V)
Protocol: (§1) AsPC-1, 1358, and SW48 cells were cultured in RPMI 1640 media supplemented with 10% fetal bovine serum, streptomycin, and penicillin. Lovo and SW480 cells were cultured in DMEM media supplemented with 10% fetal bovine serum, streptomycin, and penicillin. The cell lines were plated in their respective medium supplemented with 2.5% fetal bovine serum, streptomycin, and penicillin. All cell lines were plated in white walled 96-well plates at 2,000 cells/well or 384-well plates at 500 cells/well, except Lovo, which were plated at 4,000 or 1,000 cells/well, respectively. The cells were incubated in DMSO (control) or a compound for 3 days at 37° C. under 5% CO2. A CELLTITER-GLO® reagent (100 μL) was then added to each well. After a 10 min incubation with shaking, luminescence was measured using an ENVISION® multimode plate reader.

SW48 (wt) cells = experiment: Cell viability assay (CELLTITER-GLO), SW48 cells; conditions: Homo sapiens, 72 h, 3 days at 37° C., CELLTITER-GLO luminescence, read-out: Inhibition of Cancerous Cells IC50 (μM) SW48 (wt)
Protocol: as §1

AsPC-1 (G12D) cells = experiment: Cell viability assay (CELLTITER-GLO), AsPC-1 cells; conditions: Homo sapiens, ASPC1, 72 h, 3 days at 37° C., CELLTITER-GLO luminescence, read-out: Inhibition of Cancerous Cells IC50 (μM) AsPC-1 (G12D)
Protocol: as §1

H358 (G12C) cells = experiment: Cell viability assay (CELLTITER-GLO), H358 cells; conditions: Homo sapiens, NCI-H358, 72 h, 3 days at 37° C., CELLTITER-GLO luminescence, read-out: Inhibition of Cancerous Cells IC50 (μM) H358 (G12C)
Protocol: as §1

Lovo (G13D) cells = experiment: Cell viability assay (CELLTITER-GLO), Lovo cells; conditions: Homo sapiens, 72 h, 3 days at 37° C., CELLTITER-GLO luminescence, read-out: Inhibition of Cancerous Cells IC50 (μM) Lovo (G13D)
Protocol: as §1

IC50 (SW480 (G12V) cells) [µM]	IC50 (SW48 (wt) cells) [µM]	IC50 (AsPC-1 (G12D) cells) [µM]	IC50 (H358 (G12C) cells) [µM]	IC50 (Lovo (G13D) cells) [µM]	SMILES
0.57	2	1.5	1.9	0.63	COc1cc2c(N[C@H](C)c3cccc(Br)c3)nc(C)nc2cc1OCCCCCCCCCN1CCN(C(=O)COc2cccc(N3CCC(=O)NC3=O)c2)CC1 [Compound C5, (R)-1-(3-(2-(4-(9-((4-((1-(3-Bromophenyl)ethyl)amino)-6-methoxy-2-methyl-quinazolin-7-yl)oxy)nonyl)piperazin-1-yl)-2-oxoethoxy)phenyl)dihydropyrimidine-2,4(1H,3H)-dione]
0.58	2.8	3.4	3.3	0.74	COc1cc2c(N[C@H](C)c3cccc(Br)c3)nc(C)nc2cc1OCCCCCCCCCCCN1CCN(C(=O)COc2cccc(N3CCC(=O)NC3=O)c2)CC1 [Compound C6, (R)-1-(3-(2-(4-(11-((4-((1-(3-Bromophenyl)ethyl)amino)-6-methoxy-2-methyl-quinazolin-7-yl)oxy)undecyl)piperazin-1-yl)-2-oxoethoxy)phenyl)dihydropyrimidine-2,4(1H,3H)-dione]
0.36	0.67	4.5	> 10	1.1	COc1cc2c(N[C@H](C)c3cccc(Br)c3)nc(C)nc2cc1OCCCCCCCCCCCN1CCN(C(=O)CNc2ccc3c(N4CCC(=O)NC4=O)nn(C)c3c2)CC1 [Compound D7, (R)-1-(6-((2-(4-(11-((4-((1-(3-Bromophenyl)ethyl)amino)-6-methoxy-2-methyl-quinazolin-7-yl)oxy)undecyl)piperazin-1-yl)-2-oxoethyl)amino)-1-methyl-1H-indazol-3-yl)-dihydropyrimidine-2,4(1H,3H)-dione]
0.35	0.4	1.7	6.1	1.2	COc1cc2c(N[C@H](C)c3cccc(Br)c3)nc(C)nc2cc1OCCCCCCCCCN1CCN(C(=O)CNc2ccc3c(N4CCC(=O)NC4=O)nn(C)c3c2)CC1 [Compound D8, (R)-1-(6-((2-(4-(9-((4-((1-(3-Bromophenyl)ethyl)amino)-6-methoxy-2-methyl-quinazolin-7-yl)oxy)nonyl)piperazin-1-yl)-2-oxoethyl)amino)-1-methyl-1H-indazol-3-yl)-dihydropyrimidine-2,4(1H,3H)-dione]
1.1	2.5	4.7	4.5	1.9	COc1cc2c(N[C@@H](C)c3cccc(Br)c3)nc(C)nc2cc1OCCCCCCCCCN1CCN(C(=O)CNc2cccc3c(N4CCC(=O)NC4=O)nn(C)c23)CC1 [Compound D9, (S)-1-(7-((2-(4-(9-((4-((1-(3-Bromophenyl)ethyl)amino)-6-methoxy-2-methyl-quinazolin-7-yl)oxy)nonyl)piperazin-1-yl)-2-oxoethyl)amino)-1-methyl-1H-indazol-3-yl)dihydropyrimidine-2,4(1H,3H)-dione]
1.2	> 10	> 10	> 10	1.4	COc1cc2c(N[C@H](C)c3cccc(Br)c3)nc(C)nc2cc1OCCCCCCCCCCCN1CCN(C(=O)CNc2cccc3c(N4CCC(=O)NC4=O)nn(C)c23)CC1 [Compound D10, (R)-1-(7-((2-(4-(11-((4-((1-(3-Bromophenyl)ethyl)amino)-6-methoxy-2-methyl-quinazolin-7-yl)oxy)undecyl)piperazin-1-yl)-2-oxoethyl)amino)-1-methyl-1H-indazol-3-yl)-dihydropyrimidine-2,4(1H,3H)-dione]
3.4	3.6	5.1	3.2	2.5	COc1cc2nc(C)nc(N[C@H](C)c3cccc(Br)c3)c2cc1OC [reference compound]
